{"source": "patent US20180298317A1", "about": "“DEVICES FOR SIMULATING A FUNCTION OF A TISSUE AND METHODS OF USE AND MANUFACTURING THEREOF” (PRESIDENT AND FELLOWS OF HARVARD COLLEGE, priority 2015, published 2018)", "key": {"[1]": {"tested_on": "human brain microvascular endothelial cells with pericytes or astrocytes", "assay": "Inflammatory stimulation and cytokine release in 3D BBB chip", "type": "cell-based", "method": "Microfluidic chips and Transwell inserts were cultured for about 72 hours, followed by incubation in CSC complete medium with fetal bovine serum reduced from about 10% to about 2% for about 18 hours. Microfluidics chips were stimulated with TNF-α (Sigma-Aldrich) at about 50 ng/ml in CSC complete medium with about 2% serum for about 6 hrs (about 5 min flow at about 120 μl/min corresponding to about 1 dyne/cm^2, followed by static conditions). Transwells were stimulated on the apical and the basal side. Following thorough rinsing of microfluidic chips under continuous flow (about 120 μl/min, about 1 dyne/cm^2) and batch washes of Transwell plates with CSC complete medium with about 2% serum, conditioned medium from the chips was collected continuously for about 1 hour at about 100 μl/hr (about 0.01 dyne/cm^2) using syringe-driven flow; medium from the apical compartment was collected from Transwells after about 1 hour. The cytokine release profile was assayed with the Bio-Plex Pro Human Cytokine 17-plex Assay (Bio-Rad) in a Bioplex 3D system (Bio-Rad), and the resulting cytokine release profiles were normalized to cell culture area in 3D BBB chips versus Transwells.\n(§1) To explore whether we can use the synthetic nature of the 3D BBB chip to analyze the contributions of individual brain vasculature-associated cells to neuroinflammation, the engineered microvessels were cultured in the presence or absence of TNF-α (about 50 ng/ml) that was flowed through the lumen for about 6 hours. Cytokine release profiles produced in the 3D BBB chips containing endothelium with or without either pericytes or astrocytes were then analyzed, and the results were compared to those obtained with similar mono-cultures, as well as co-cultures maintained in commercial Transwell culture plates."}, "[2]": {"tested_on": "human brain microvascular endothelial cells with pericytes or astrocytes", "assay": "Inflammatory stimulation and cytokine release in static Transwell cultures", "type": "cell-based", "method": "24-well Transwell inserts (Corning), about 0.4 μm, polyethylene terephthalate membranes, were coated with rat-tail collagen I (Corning) at about 100 μg/ml in phosphate-buffered saline for about 2 hours. The inserts were inverted and pericytes or astrocytes were seeded at about 6.25×10^3 cells per insert. After about 2 hours of incubation, the inserts were placed in 24-well plates and seeded with hBMVEC at about 2.5×10^4 cells per insert. Transendothelial electrical resistance (TEER) values were measured after about 120 hrs of culture using an EndOhm (WPI) and chopstick electrodes. Paracellular diffusion was assayed about 5 minutes after adding dextran 3 kDa-Alexa488 (about 100 μg/ml) to the apical chamber and using a Synergy Neo platereader (BioTek (Winooski, Vt., USA)).\nMicrofluidic chips and Transwell inserts were cultured for about 72 hours, followed by incubation in CSC complete medium with fetal bovine serum reduced from about 10% to about 2% for about 18 hours. Microfluidics chips were stimulated with TNF-α (Sigma-Aldrich) at about 50 ng/ml in CSC complete medium with about 2% serum for about 6 hrs (about 5 min flow at about 120 μl/min corresponding to about 1 dyne/cm^2, followed by static conditions). Transwells were stimulated on the apical and the basal side. […]\nas §1"}}}
{"substance": "TNF-α", "values": [{"measurement": "IL-6 induction", "setting": "[1]; 3D BBB chip co-cultures of astrocytes-endothelial cells and pericytes-endothelial cells, about 50 ng/ml, about 6 hours", "result": "strong IL-6 induction"}, {"measurement": "IL-8 production in response to stimulation", "setting": "[1]; 3D BBB chip, astrocytes or pericytes in combination with endothelial cells", "result": "enhanced IL-8 production"}, {"measurement": "induction of G-CSF secretion", "setting": "[1]; 3D BBB chip, pericytes with endothelium, about 50 ng/ml, about 6 hours", "result": "generally not sensitive to induction"}, {"measurement": "increase in G-CSF secretion in response to TNF-α stimulation", "setting": "[1]; 3D BBB chips containing astrocytes and endothelial cells, about 50 ng/ml, about 6 hours", "result": "≤ 10", "unit": "fold"}, {"measurement": "IL-6 induction", "setting": "[2]; Transwell co-cultures, about 50 ng/ml, about 6 hours", "result": "barely detectable"}, {"measurement": "IL-8 production in response to stimulation", "setting": "[2]; Transwell cultures, astrocytes or pericytes in combination with endothelial cells", "result": "enhanced IL-8 production"}, {"measurement": "induction of G-CSF secretion", "setting": "[2]; endothelial cells and astrocytes co-cultured under static conditions in Transwells, about 50 ng/ml, about 6 hours", "result": "could not be detected"}]}
